This is an account of results in PMC8456852 (Clinical Pharmacology in Drug Development, 2021).

For data set [1] the following is noted: for Geometric mean area under the concentration‐time curve: AUC type not specified; for AUC0‐∞, healthy Japanese (this study) vs ING114580 / Maximum concentration, healthy Japanese (this study) vs ING114580: greater in healthy Japanese participants; for CL/F (apparent clearance): Overall (N = 12), healthy Japanese, arithmetic mean (SD).
For data set [2] the following is noted: cited from earlier work; for Maximum concentration: studied as individual components, abacavir 600 mg and lamivudine 300 mg.
The nature of another data set: clinical. Conditions: human, in vivo, po.
For data set [3] the following is noted: cited from earlier work.
Data set [4] concerns uridine diphosphate glucuronosyltransferase family 1 member A1 (UGT1A1). To be noted: cited from earlier work.
For data set [5], the system named is adenosine triphosphate–binding cassette subfamily G transport protein (ABCG2). To be noted: cited from earlier work.
The mark [6] stands for this setting: N = 12 healthy Japanese, single oral dose, fasted.
The mark [7] stands for this setting: dolutegravir twice‐daily dosing.

SMILES strings stand for the structures.

Take `Nc1ccn([C@@H]2CS[C@H](CO)O2)c(=O)n1` [Lamivudine, lamivudine]: in data set [1] (setting [6]), the “Geometric mean maximum plasma concentration” value worked out at 3.35 µg/mL, the “tmax relative to abacavir (times more slowly)” value amounted to 3 times and the “Geometric mean area under the concentration‐time curve” value (shortened to “Geometric mean area”) worked out at 16.60 µg·h/mL. In addition, in data set [1], the “AUC0‐∞, healthy Japanese (this study) vs ING114580” value is “≈ 1.3 fold” and the “Maximum concentration, healthy Japanese (this study) vs ING114580” value was found to be 1.6 fold. Moreover, the “Median tmax, this study vs EPZ104807” value in data set [1] (higher than previously reported in Japanese participants (abacavir/lamivudine formulation)) is 1.5 fold. The Maximum concentration in data set [2] was 2.04 ± 0.54 µg/mL. In “clinical” (both), the Cmax – broadly, the highest concentration seen after dosing – came out at 3430 ng/mL; the time of peak concentration (Tmax) (as a rule, the time from dosing to the highest level) came out at 2.98 h; the concentration at 24 h is 38.7 ng/mL. In “clinical” (female), the highest level (Cmax) was 3650 ng/mL, the Tmax stood at 2.98 h and the concentration at 24 h is 32.6 ng/mL. For the same compound, in the data set “clinical” (male), the maximum concentration (Cmax) is 2980 ng/mL, the time of peak concentration (Tmax) was found to be 2.5 h and the concentration at 24 h is 50.9 ng/mL.

As to `C[C@@H]1CCO[C@H]2Cn3cc(C(=O)NCc4ccc(F)cc4F)c(=O)c(O)c3C(=O)N12` [Dolutegravir, dolutegravir], in data set [1] (setting [6]), the “Exposure (geometric mean AUC0‐∞) of dolutegravir vs abacavir and lamivudine” value is given as “≈ 4 times”; the “Geometric mean CL/F” value turned out to be 0.678 L/h; the “Geometric mean maximum plasma concentration” value came to 4.13 µg/mL; the “tmax relative to abacavir (times more slowly)” value stood at 3 times. For the same compound, the “Geometric mean area” value in data set [1] (setting [6]) turned out to be 71.60 µg·h/mL. In data set [1] (single oral dose, fasted), the “CL/F (apparent clearance)” value is listed as 0.691 (0.145) L/h. Besides, the “Exposure, this study vs ING115381” value in data set [1] (higher than in healthy Japanese participants given dolutegravir 50 mg alone) is reported as 1.9 fold. Moreover, in data set [2] (setting [7]), the “Cmax (geometric mean)” value is 4.15 µg/mL and the “Geometric mean AUC from time 0 to 24 hours” value is 75.10 µg·h/mL. Moreover, the “Increase in dolutegravir exposure with atazanavir (UGT1A1 inhibitor)” value in data set [2] (once‐daily dosing with atazanavir) is recorded as “≈ 2 fold”. Further, the “Exposure in individuals with ABCG2 genetic variant 421AA” value in data set [3] was “demonstrably higher”. Besides, the “Exposure increase in UGT1A*6 heterozygous individuals” value in data set [3] (evaluation of 9 phase 1/2 clinical studies) was “≈ 1.4 fold”. Further, in data set [3] (population PK models), the “Total magnitude of change in exposure from body weight” value was less than 30%. For the same compound, in data set [3] (population PK), the “Oral bioavailability, higher in women than men” value is given as “≈ 21%”. Besides, in data set [4], the “Substrate of UGT1A1” value is on record as “substrate”. Further, in data set [5], the “Substrate of ABCG2” value was “substrate”. Besides, in the data set “clinical” (both), the highest concentration (Cmax) was found to be 4210 ng/mL, the Tmax is 3.5 h and the concentration at 24 h stood at 1150 ng/mL. For the same compound, in the data set “clinical” (female), the CL/F (in general, clearance divided by bioavailability, as obtained after extravascular dosing) was 0.167 mL/min/kg; the highest level (Cmax) was 4450 ng/mL; the Tmax is 2.98 h; the concentration at 24 h stood at 1130 ng/mL. For the same compound, the half-life (commonly the time needed for the level to fall by half in the phase considered) in “clinical” (female) was 824 min. In addition, in the data set “clinical” (male), the CL/F was 0.167 mL/min/kg, the Cmax was determined as 3750 ng/mL, the time to peak (Tmax) came to 4 h and the concentration at 24 h worked out at 1180 ng/mL. Further, the half-life in the data set “clinical” (male) is 876 min.

For `Nc1nc(NC2CC2)c2ncn([C@H]3C=C[C@@H](CO)C3)c2n1` [Abacavir, abacavir], in data set [1] (setting [6]), the “Geometric mean CL/F” value was 32.9 L/h, the “Geometric mean maximum plasma concentration” value amounted to 5.22 µg/mL and the “Geometric mean area” value is 18.20 µg·h/mL. Besides, in data set [1] (single oral dose, fasted), the “CL/F (apparent clearance)” value is on record as 33.7 (8.54) L/h. In data set [1], the “AUC0‐∞, healthy Japanese (this study) vs ING114580” value is listed as “≈ 1.3 fold” and the “Maximum concentration, healthy Japanese (this study) vs ING114580” value was 1.3 fold. Besides, the Maximum concentration in data set [2] is 4.26 ± 1.19 µg/mL. In “clinical” (both), the Cmax was 5380 ng/mL, the Tmax worked out at 1.01 h, the concentration at 24 h worked out at 6.75 ng/mL and the half-life is 170 min. Besides, in “clinical” (female), the CL/F is 10.5 mL/min/kg, the Cmax is 5770 ng/mL, the time of peak concentration (Tmax) is 1.51 h and the concentration at 24 h came out at 6.6 ng/mL. Also, in “clinical” (female), the half-life is 172 min. For the same compound, in “clinical” (male), the CL/F is 9 mL/min/kg, the Cmax was 4600 ng/mL, the Tmax worked out at 0.99 h and the concentration at 24 h is 7.1 ng/mL. For the same compound, in “clinical” (male), the half-life is 166 min.
